Patent US8008329B2 (Dong Wha Pharmaceutical Co., Ltd., priority 2008, dated 2011)
Marks after values point to notes of the source that are not given here.

Tested on: osteoclast differentiation
Assay: Osteoclast differentiation in co-culture of mouse bone marrow cells and ST2 cells, TRAP staining (Examples 8-9)
Type: cell-based
Settings: for % number of osteoclast (vs. solvent control group): 0.1 μM each, day 7; for activity at 0.1 µM: Mus musculus, Osteoclast, 168 h, Individual treatment (compounds), day 7, read-out: % number of osteoclast (vs. solvent control group)
Method in brief: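 Bone marrow cells from 6-8-week male ddY mice were co-cultured with ST2 stromal cells under 10^−8 M vitamin D3 and 10^−8 M dexamethasone, with compounds at 0.1 μM final (0.1% DMSO control), refreshed on days 3 and 5. On day 7, TRAP-positive osteoclasts with ≥6 nuclei were counted and expressed as % of solvent control (n=4).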

[1] = Combination treatment (alendronic acid + compounds)
[2] = Combination treatment (risedronic acid + compounds)

SMILES | % number of osteoclast (vs. solvent control group) [1] | % number of osteoclast (vs. solvent control group) [2] | activity at 0.1 µM [%]
Cc1nc(-c2ccc(OCCCCC(=O)Nc3ccc(C(=N)NO)cc3)cc2)c(C(C)C)s1 [Compound 182, N-hydroxy-4-{5-[4-(5-isopropyl-2-methyl-1,3-thiazol-4-yl)-phenoxy]-pentanoyl-amino}-benzamidine] | 45 ± 6.7% | 41 ± 5.1^c % | 82 ± 12
CN(CCO)c1nc(-c2ccc(OCCCCCOc3ccc(C(=N)NO)cc3)cc2)c(CN2CCOCC2)s1 [Compound 310, N-hydroxy-4-[5-(4-{2-[(2-hydroxy-ethyl) -methyl-amino]-5-morpholin-4-ylmethyl-thiazol-4-yl}-phenoxy)-pentyloxy]-benzamidine] | 33 ± 5.1^ab % | 18 ± 4.5^ac % | 49 ± 3.3
N=C(NO)c1ccc(OCCCCCOc2ccc(-c3nc(C4CCCCC4)sc3CCN(C(=O)c3cccnc3)C3CC3)cc2)cc1 [Compound 281, N-hydroxy-4-{5-[4-(2-cyclohexyl-5-{2-[cyclopropyl-(pyridin-3-carbonyl)-amino]-ethyl}-thiazol-4-yl)-phenoxy]-pentyloxy}-benzamidine] | 22 ± 5.9^b % | 6 ± 2.5^ac % | 30 ± 7.6
Cc1sc(NC(=O)c2ccncc2)nc1-c1ccc(OCCCCCOc2ccc(C(=N)NO)cc2)cc1 [Compound 91, N-hydroxy-4-{5-[4-(5-methyl-2-(4-pyridylcarbonyl)amino-1,3-thiazol-4-yl)phenoxy]pentyloxy}-benzamidine] | 35 ± 2.7^ab % | 32 ± 7.0^ac % | 60 ± 8.8
N=C(NO)c1ccc(OCCCCCOc2ccc(-c3nc(N4CCCCC4)sc3N3CCOCC3)cc2)cc1 [Compound 337, N-hydroxy-4-{5-[4-(5-morpholin-4-yl-2-piperidin-1-yl-thiazol-4-yl)-phenoxy]-pentyloxy}-benzamidine] | 20 ± 3.0^ab % | 16 ± 3.6^ac % | 53 ± 3.7
CCNc1nc(-c2ccc(OCCCCCOc3ccc(C(=N)NO)cc3)cc2)cs1 [Compound 84, N-hydroxy-4-{5-[4-(2-ethylamino-1,3-thiazol-4-yl)phenoxy]pentyloxy}-benzamidine] | 30 ± 5.1^ab % | 6 ± 4.4^ac % | 44 ± 4.3
CC(C)c1sc(N(C)C)nc1-c1ccc(OCCCCCOc2ccc(C(=N)NO)cc2)cc1 [Compound 161, N-hydroxy-4-{5-[4-(5-isopropyl-2-dimethylamino-1,3-thiazol-4-yl)phenoxy]pentyloxy}-benzamidine] | 56 ± 4.3^ab % | 47 ± 14.0^a % | 79 ± 5.1
CN(CCN1CCOCC1)c1nc(-c2ccc(OCCCCCOc3ccc(C(=N)NO)cc3)cc2)c(C2CCCC2)s1 [Compound 153, N-hydroxy-4-[5-(4-{5-cyclopentyl-2-[methyl-(2-morpholinoethyl)amino]-1,3-thiazol-4-yl}phenoxy)pentyloxy]-benzamidine] | 27 ± 3.5^ab % | 22 ± 4.5^ac % | 55 ± 3.1
CC(C)c1nc(-c2ccc(OCCCCCOc3ccc(C(=N)NO)cc3)cc2)c(CCn2ccnc2)s1 [Compound 242, N-hydroxy-4-(5-{4-[5-(2-imidazol-1-yl-ethyl)-2-isopropyl-thiazol-4-yl]-phenoxy}-pentyloxy)-benzamidine] | 18 ± 3.5^ab % | 13 ± 2.8^ac % | 58 ± 3.4
CC(C)c1nc(-c2ccc(OCCCCCOc3ccc(C(=N)NO)cc3)cc2)c(CCN(C(=O)c2ccncc2)C2CC2)s1 [Compound 280, N-hydroxy-4-{5-[4-(5-{2-[cyclopropyl-(pyridin-4-carbonyl)-amino]-ethyl}-2-isopropyl-thiazol-4-yl)-phenoxy]-pentyloxy}-benzamidine] | 25 ± 6.4^b % | 8 ± 1.4^ac % | 40 ± 5
N=C(NO)c1ccc(OCCCCCOc2ccc(-c3nc(NC(=O)c4cccnc4)sc3CC3CCCC3)cc2)cc1 [Compound 89, N-hydroxy-4-{5-[4-(5-cyclopentylmethyl-2-(3-pyridylcarbonyl)amino-1,3-thiazol-4-yl)phenoxy]pentyloxy}-benzamidine] | 38 ± 1.9^ab % | 39 ± 2.7^ac % | 58 ± 5.1
Cc1nc(-c2ccc(OCCCCCOc3ccc(C(=N)NO)cc3)cc2)c(CCNCC(C)C)s1 [Compound 235, N-hydroxy-4-(5-{4-[5-(2-isobutylamino-ethyl)-2-methyl-thiazol-4-yl]-phenoxy}-pentyloxy)-benzamidine] | 33 ± 1.8% | 25 ± 4.4^c % | 38 ± 7.6
Cc1nc(-c2ccc(OCCCCCOc3ccc(C(=N)NO)cc3)cc2)c(CNCC(C)C)s1 [Compound 299, N-hydroxy-4-(5-{4-[5-(isobutylamino-methyl)-2-methyl-thiazol-4-yl]-phenoxy}-pentyloxy)-benzamidine] | 14 ± 2.9^ab % | 11 ± 6.0^ac % | 40 ± 6.9
CCc1sc(NS(=O)(=O)CC)nc1-c1ccc(OCCCCCOc2ccc(C(=N)NO)cc2)cc1 [Compound 95, N-hydroxy-4-{5-[4-(2-ethanesulphonylamino-5-ethyl-1,3-thiazol-4-yl)phenoxy]pentyloxy}-benzamidine] | 37 ± 10.3^ab % | 33 ± 6.8^ac % | 90 ± 5.4
Cc1nc(-c2ccc(OCCCCCOc3ccc(C(=N)NO)cc3)cc2)c(CNCCN2CCOCC2)s1 [Compound 302, N-hydroxy-4-[5-(4-{2-methyl-5-[(2-morpholin-4-yl-ethylamino)-methyl]-thiazol-4-yl}-phenoxy)-pentyloxy]-benzamidine] | 16 ± 4.5^ab % | 9 ± 2.8^ac % | 59 ± 10.6
CCCCc1sc(NC)nc1-c1ccc(OCCCCCOc2ccc(C(=N)NO)cc2)cc1 [Compound 105, N-hydroxy-4-{5-[4-(5-butyl-2-methylamino-1,3-thiazol-4-yl)phenoxy]pentyloxy}-benzamidine] | 42 ± 3.0^b % | 41 ± 8.8^ac % | 87 ± 11
Cc1nc(-c2ccc(OCCCCCOc3ccc(C(=N)NO)cc3)cc2)c(CN2CCCCC2)s1 [Compound 296, N-hydroxy-4-{5-[4-(2-methyl-5-piperidin-1-ylmethyl-thiazol-4-yl)-phenoxy]-pentyloxy}-benzamidine] | 13 ± 2.6^ab % | 8 ± 1.7^ac % | 46 ± 3.6
CC(C)NCc1sc(N(C)CCN2CCOCC2)nc1-c1ccc(OCCCCCOc2ccc(C(=N)NO)cc2)cc1 [Compound 317, N-hydroxy-4-[5-(4-{5-(isopropylamino-methyl)-2-[methyl-(2-morpholin-4-yl-ethyl)-amino]-thiazol-4-yl}-phenoxy)-pentyloxy]-benzamidine] | 18 ± 4.6^ab % | 16 ± 3.2^ac % | 45 ± 3.2
